# From patent publication US9833497B2, “Human originated EGF domain proteins and use of the same” (CHENGDU SOURCEBIO LIMITED-LIABILITY COMPANY, priority 2013, dated 2017)
# How the values were obtained:
# Format in all cases: cell-based
# [1] = test system: E. coli BL21; assay: MIC against Gram-negative bacteria: E. coli BL21; details: 5×10^5 CFU/mL
# How it was run: (§1)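 Bacteria grown in LB at 37° C with shaking to McFarland 0.5, pelleted and resuspended in fresh LB, then seeded at 5×10^5 CFU/mL per well. Purified recombinant human EGF domain proteins were two-fold serially diluted in triplicate and plates shaken at 37° C, 175 rpm. MIC is the lowest protein concentration with no bacterial growth.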
# [2] = test system: Pseudomonas aeruginosa; assay: MIC against Gram-negative bacteria: Pseudomonas aeruginosa; details: 5×10^5 CFU/mL
# How it was run: as §1
# [3] = test system: Moraxella catarrhalis; assay: MIC against Gram-negative bacteria: Moraxella catarrhalis; details: 5×10^5 CFU/mL
# How it was run: as §1
# [4] = test system: Proteus vulgaris; assay: MIC against Gram-negative bacteria: Proteus vulgaris; details: 5×10^5 CFU/mL
# How it was run: as §1
# [5] = test system: Citrobacter diversus; assay: MIC against Gram-negative bacteria: Citrobacter diversus; details: 5×10^5 CFU/mL
# How it was run: as §1
# [6] = test system: Proteus mirabilis; assay: MIC against Gram-negative bacteria: Proteus mirabilis; details: 5×10^5 CFU/mL
# How it was run: as §1
# [7] = test system: Serratia marcescens; assay: MIC against Gram-negative bacteria: Serratia marcescens; details: 5×10^5 CFU/mL
# How it was run: as §1
# [8] = test system: Enterobacter cloacae; assay: MIC against Gram-negative bacteria: Enterobacter cloacae; details: 5×10^5 CFU/mL
# How it was run: as §1
# [9] = test system: E. coli DH5α; assay: Antibacterial activity: MIC and growth curve against E. coli DH5α in 96-well plate; details: minimal inhibitory concentration against E. coli DH5α; 96-well plate, 5×10^5 CFU/mL, 37° C., judged after 8 h
# How it was run: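 Log-phase DH5α (OD600 about 0.5, 37° C, 185 rpm in LB) was pelleted, resuspended in fresh LB and seeded at 5×10^5 CFU/mL with recombinant protein at 50, 25 and 12.5 μg/mL (two-fold series), in triplicate. Plates were shaken at 175 rpm, 37° C, and OD600 was read every 30 min. MIC was the lowest concentration with no growth.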
# [10] = test system: Klebsiella pneumonia; assay: MIC against Gram-negative bacteria: Klebsiella pneumonia; details: 5×10^5 CFU/mL
# How it was run: as §1
# [11] = test system: Aeromonas hydrophila; assay: MIC against Gram-negative bacteria: Aeromonas hydrophila; details: 5×10^5 CFU/mL
# How it was run: as §1
# [12] = 10 h cultivation at 37° C., two-fold serial dilution
Substance,MIC (μg/mL) E. coli BL21 ([1]; 10 h cultivation at 37° C.) [µg/mL],MIC (μg/mL) P. aeruginosa ([2]; 10 h cultivation at 37° C.) [µg/mL],MIC (μg/mL) M. catarrhalis ([3]; 10 h cultivation at 37° C.) [µg/mL],MIC (μg/mL) P. vulgaris ([4]; 10 h cultivation at 37° C.) [µg/mL],MIC (μg/mL) C. diversus ([5]; 10 h cultivation at 37° C.) [µg/mL],MIC (μg/mL) P. mirabilis ([6]; 10 h cultivation at 37° C.) [µg/mL],MIC (μg/mL) S. marcescens ([7]; 10 h cultivation at 37° C.) [µg/mL],MIC (μg/mL) E. cloacae ([8]; 10 h cultivation at 37° C.) [µg/mL],MIC [9] [µg/mL],MIC (μg/mL) K. pneumonia ([10]; 10 h cultivation at 37° C.) [µg/mL],MIC (μg/mL) A. hydrophila ([11]; 10 h cultivation at 37° C.) [µg/mL],"MIC E. coli BL21 ([1]; 96-well plate, 37° C., 10 h) [µg/mL]","MIC P. aeruginosa ([2]; 96-well plate, 37° C., 10 h) [µg/mL]","MIC M. catarrhalis ([3]; 96-well plate, 37° C., 10 h) [µg/mL]","MIC P. vulgaris ([4]; 96-well plate, 37° C., 10 h) [µg/mL]","MIC C. diversus ([5]; 96-well plate, 37° C., 10 h) [µg/mL]","MIC P. mirabilis ([6]; 96-well plate, 37° C., 10 h) [µg/mL]","MIC S. marcescens ([7]; 96-well plate, 37° C., 10 h) [µg/mL]","MIC E. cloacae ([8]; 96-well plate, 37° C., 10 h) [µg/mL]","MIC K. pneumonia ([10]; 96-well plate, 37° C., 10 h) [µg/mL]",also measured
PRT170 (CTHHKPCKNGATCTNTGQGSYTCSCRPGYTGATC; listed as Homo sapiens),25,12.5,25,25,12.5,50,12.5,50,50,25,25,,,,,,,,,,
PRT1168 (NINDCSQNPCHNGGTCRDLVNDFYCDCKNGWKGKTCH; listed as Homo sapiens),,,,,,,,,25,,,,,,,,,,,,"MIC E. coli BL21 [1, 12]: 12.5 µg/mL; MIC P. aeruginosa [2, 12]: 25 µg/mL; MIC M. catarrhalis [3, 12]: 50 µg/mL; MIC P. vulgaris [4, 12]: 50 µg/mL; MIC C. diversus [5, 12]: 12.5 µg/mL; MIC P. mirabilis [6, 12]: 12.5 µg/mL; MIC S. marcescens [7, 12]: 12.5 µg/mL; MIC E. cloacae [8, 12]: 12.5 µg/mL; MIC K. pneumonia [10, 12]: 50 µg/mL; MIC A. hydrophila [11, 12]: 50 µg/mL"
PRT454 (LPDQCTPNPCDRKGTQACQDLMGNFFCLCKAGWGGRLCD; listed as Homo sapiens),,,,,,,,,50,,,,,,,,,,,,"MIC against E. coli BL21 ([1]; 96-well plate, 37° C., 10 h): 12.5 µg/mL; MIC against P. aeruginosa ([2]; 96-well plate, 37° C., 10 h): 25 µg/mL; MIC against M. catarrhalis ([3]; 96-well plate, 37° C., 10 h): 50 µg/mL; MIC against P. vulgaris ([4]; 96-well plate, 37° C., 10 h): 50 µg/mL; MIC against C. diversus ([5]; 96-well plate, 37° C., 10 h): 25 µg/mL; MIC against P. mirabilis ([6]; 96-well plate, 37° C., 10 h): 12.5 µg/mL; MIC against S. marcescens ([7]; 96-well plate, 37° C., 10 h): 12.5 µg/mL; MIC against E. cloacae ([8]; 96-well plate, 37° C., 10 h): 25 µg/mL; MIC against K. pneumonia ([10]; 96-well plate, 37° C., 10 h): 50 µg/mL; MIC against A. hydrophila ([11]; 96-well plate, 37° C., 10 h): 12.5 µg/mL"
PRT147 (DINECEINNGGCSVAPPVECVNTPGSSHCQACPPGYQGDGRVCT; listed as Homo sapiens),12.5,12.5,12.5,25,12.5,12.5,12.5,12.5,12.5,12.5,12.5,,,,,,,,,,
PRT614 (CNCNLYGTMKQQSSCNPVTGQCECLPHVTGQDCGACDPGFYNLQSGQGCER; listed as Homo sapiens),,,,,,,,,50,,,50,50,12.5,12.5,25,25,25,12.5,50,"MIC A. hydrophila ([11]; 96-well plate, 37° C., 10 h): 12.5 µg/mL"
PRT625 (CNCSGRSEECTFDRELFRSTGHGGRCHHCRDHTAGPHCERCQENFYHWDPRMPCQP; listed as Homo sapiens),,,,,,,,,12.5,,,25,12.5,25,25,12.5,50,12.5,50,25,"MIC A. hydrophila ([11]; 96-well plate, 37° C., 10 h): 25 µg/mL"
